The target in one experiment is mGlu2 (Rattus norvegicus (Rat), UniProt P31421). The experiment is described as follows: mGlu2 GIRK thallium flux assay.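 For all read-outs here: Cell-based assay, rate of fluorescence rise right after thallium plus agonist addition read on a kinetic imaging plate reader, normalized to vehicle and maximal agonist control.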 As to conditions: for EC50: read-out: mGlu2 PAM EC50, test compound, then EC20 glutamate […] later in the presence of thallium; for EC50 / mGlu2 PAM Max: PAM mode, mean ± SEM, at least three experiments; for Emax: read-out: mGlu2 PAM Max; for mGlu2 PAM Max: % Glutamate Max.
mGlu2, sequence (P31421 19-872): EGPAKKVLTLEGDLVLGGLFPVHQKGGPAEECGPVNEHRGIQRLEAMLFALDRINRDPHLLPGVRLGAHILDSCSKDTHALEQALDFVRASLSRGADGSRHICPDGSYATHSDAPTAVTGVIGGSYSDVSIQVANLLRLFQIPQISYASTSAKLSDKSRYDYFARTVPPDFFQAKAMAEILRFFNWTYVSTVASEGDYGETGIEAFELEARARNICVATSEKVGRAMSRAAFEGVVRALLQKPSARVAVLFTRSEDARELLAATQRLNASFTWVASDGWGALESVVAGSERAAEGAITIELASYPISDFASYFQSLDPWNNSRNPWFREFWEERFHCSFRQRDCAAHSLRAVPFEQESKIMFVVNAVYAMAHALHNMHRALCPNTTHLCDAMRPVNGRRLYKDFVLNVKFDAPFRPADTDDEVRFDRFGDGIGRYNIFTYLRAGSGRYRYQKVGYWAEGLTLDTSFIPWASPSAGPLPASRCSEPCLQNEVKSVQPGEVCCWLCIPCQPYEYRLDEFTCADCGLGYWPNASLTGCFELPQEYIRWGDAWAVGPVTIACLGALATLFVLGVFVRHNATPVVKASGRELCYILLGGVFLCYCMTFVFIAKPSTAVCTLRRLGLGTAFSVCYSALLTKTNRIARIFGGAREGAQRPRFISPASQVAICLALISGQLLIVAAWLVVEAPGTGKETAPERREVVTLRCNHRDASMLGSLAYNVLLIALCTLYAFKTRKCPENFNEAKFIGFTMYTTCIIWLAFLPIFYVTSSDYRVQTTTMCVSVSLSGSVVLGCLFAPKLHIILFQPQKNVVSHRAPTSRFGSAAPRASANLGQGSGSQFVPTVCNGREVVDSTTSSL

The next experiment addresses mGlu3 (Rattus norvegicus (Rat), UniProt P31422). The experiment is described as follows: mGlu3 GIRK thallium flux assay.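 For all read-outs here: kinetic fluorescence slope read shortly after thallium plus agonist addition, scaled between vehicle and maximal agonist control.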 As to conditions: for EC50: read-out: mGlu3 PAM EC50, test compound, then EC20 glutamate […] later in the presence of thallium; for Emax: read-out: mGlu3 PAM Max.

mGlu3, sequence (P31422 23-879): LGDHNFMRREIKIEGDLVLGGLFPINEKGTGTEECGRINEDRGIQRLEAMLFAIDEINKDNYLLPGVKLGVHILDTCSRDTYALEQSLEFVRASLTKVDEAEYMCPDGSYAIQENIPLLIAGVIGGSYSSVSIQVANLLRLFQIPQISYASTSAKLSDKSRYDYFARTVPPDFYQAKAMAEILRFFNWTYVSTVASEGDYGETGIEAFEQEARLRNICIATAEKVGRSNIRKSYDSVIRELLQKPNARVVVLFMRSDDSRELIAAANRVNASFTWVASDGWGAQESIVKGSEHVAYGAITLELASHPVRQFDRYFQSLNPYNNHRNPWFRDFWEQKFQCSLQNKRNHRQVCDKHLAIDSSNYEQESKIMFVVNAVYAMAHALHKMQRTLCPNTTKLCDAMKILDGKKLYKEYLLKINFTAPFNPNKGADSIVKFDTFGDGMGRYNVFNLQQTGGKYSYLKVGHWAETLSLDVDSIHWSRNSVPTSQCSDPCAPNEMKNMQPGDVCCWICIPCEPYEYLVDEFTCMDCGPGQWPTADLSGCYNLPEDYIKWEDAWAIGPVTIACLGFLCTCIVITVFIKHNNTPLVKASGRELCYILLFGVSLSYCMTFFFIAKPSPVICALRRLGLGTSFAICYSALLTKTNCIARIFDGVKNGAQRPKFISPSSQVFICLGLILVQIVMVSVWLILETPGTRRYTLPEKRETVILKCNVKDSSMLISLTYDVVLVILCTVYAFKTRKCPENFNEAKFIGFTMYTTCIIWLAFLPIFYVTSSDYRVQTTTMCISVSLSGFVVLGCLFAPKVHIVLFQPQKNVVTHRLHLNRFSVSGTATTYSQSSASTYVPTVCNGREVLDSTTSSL

The term EC50 denotes the concentration needed to bring the measured effect to its halfway point. Turning to `Cc1c(OCCCCOCc2cccc(-c3cccc(C(=O)O)c3)c2)ccc(C(=O)CC(C)(C)C)c1O` [Compound 187, 3′-((4-(4-(3,3-Dimethylbutanoyl)-3-hydroxy-2-methylphenoxy)butoxy)methyl)-[1,1′-biphenyl]-3-carboxylic acid], the EC50 amounted to 1.57 ± 0.297 µM at mGlu2 and 3.07 ± 0.632 µM at mGlu3 (PAM mode, mean ± SEM). The figures for the Emax at mGlu2 and at mGlu3 were 93.4 ± 3.4% and 74.1 ± 7.8%, respectively.
With `Cc1c(OCc2cccc(COc3ccc(C(=O)O)cc3)c2)ccc(C(=O)CC(C)C)c1O` [compound 125], at mGlu2, the “mGlu2 PAM Max” value stood at 82.7 ± 7.2% and the EC50 is 0.238 ± 0.051 µM. In addition, the “mGlu3 PAM Max” value on mGlu3 (PAM mode, % Glutamate Max, mean ± SEM) is given as 13.9 ± 3.1%. Moreover, the EC50 at mGlu3 (PAM mode, mean ± SEM) is greater than 30 µM.
As for `COC(=O)CCc1cc(OCCCCOc2ccc(C(=O)CC3CCCC3)c(O)c2C)ccc1O` [compound 86], the concentration for a half-maximal effect (EC50) was greater than 10 µM on mGlu2 and greater than 30 µM on mGlu3 (PAM mode, mean ± SEM).
The matching figures for `Cc1c(OCCCCSc2ccncc2)ccc(C(=O)CC2CCCC2)c1C` [Compound 188]: greater than 30 µM and greater than 30 µM.
In the case of `CCCc1c(OCCCCOc2ccc(C(=O)O)cc2OC)ccc(C(C)=O)c1O` [Compound 190, 4-(4-(4-Acetyl-3-hydroxy-2-propylphenoxy)butoxy)-3-methoxybenzoic acid], the Emax on mGlu2 amounted to 64.9 ± 5.1%; on mGlu3, 12.1 ± 12.8%.
For `CC(=O)c1ccc(OCc2cccc(-c3cccc(C(=O)O)c3)c2)c(C)c1O` [compound 128, 3′-((4-Acetyl-3-hydroxy-2-methylphenoxy)methyl)-[1,1′-biphenyl]-3-carboxylic acid], the EC50 on mGlu2 worked out at 0.035 ± 0.013 µM; at mGlu3 (PAM mode, mean ± SEM), 1.29 ± 0.781 µM. In addition, the Emax is 57.9 ± 6.6% at mGlu2 and 67.8 ± 8.7% at mGlu3.
For the molecule `Cc1c(OCCCCOc2ccc(F)c(C(=O)O)c2)ccc(C(=O)CC(C)C)c1C` [Compound 34, 5-(4-(2,3-Dimethyl-4-(3-methylbutanoyl)phenoxy)butoxy)-2-fluorobenzoic acid], the EC50 is greater than 30 µM at mGlu2 and greater than 30 µM on mGlu3 (PAM mode, mean ± SEM).
With `Cc1c(OCCCCOc2ccccn2)ccc(C(=O)CC2CCCC2)c1O` [Compound 186], the EC50 at mGlu2 was greater than 10 µM; at mGlu3 (PAM mode, mean ± SEM) it was greater than 30 µM.
As for `CCCC(=O)c1ccc(OCc2cccc(-c3cccc(C(=O)O)c3)c2)c(C)c1O` [compound 130, 3′-((4-Butyryl-3-hydroxy-2-methylphenoxy)methyl)-[1,1′-biphenyl]-3-carboxylic acid], the EC50 on mGlu2 turned out to be 0.142 ± 0.029 µM; at mGlu3 (PAM mode, mean ± SEM), 1.68 ± 0.753 µM. Further, the Emax at mGlu2 is 92.9 ± 10.7%; on mGlu3, 81 ± 14.8%.
With `COc1ccc(C(=O)Nc2ccccn2)cc1OCCCCOc1ccc(C(=O)CC(C)(C)C)c(O)c1C` [compound 106, 3-(4-(4-(3,3-Dimethylbutanoyl)-3-hydroxy-2-methylphenoxy)butoxy)-4-methoxy-N-(pyridin-2-yl)benzamide], the Emax on mGlu2 was 74.8 ± 5.9%; on mGlu3, 97.4 ± 9.4%.
`Cc1c(OCc2cccc(-c3cccc(C(=O)O)c3)n2)ccc(C(=O)CC(C)(C)C)c1O` [compound 159, 3-(6-((4-(3,3-Dimethylbutanoyl)-3-hydroxy-2-methylphenoxy)methyl)pyridin-2-yl)benzoic acid]: the EC50 on mGlu2 was 0.929 ± 0.012 µM; at mGlu3 (PAM mode, mean ± SEM), 0.967 ± 0.008 µM. The figures for the Emax at mGlu2 and on mGlu3 were 104 ± 2.5% and 115 ± 2.1%, respectively.
For `CONC(=O)c1ccc(OC)c(OCCCCOc2ccc(C(=O)CC(C)(C)C)c(O)c2C)c1` [compound 90, 3-(4-(4-(3,3-Dimethylbutanoyl)-3-hydroxy-2-methylphenoxy)butoxy)-N,4-dimethoxybenzamide] the same measures were 3.89 ± 0.317 µM, 6.6 ± 1.45 µM, 82.4 ± 3.4% and 78.7 ± 6.2%.
`COC(=O)c1ccc(OCCCCOc2ccc(C(=O)CC3CCCC3)c(O)c2C)cc1` [Compound 17, Methyl 4-(4-(4-(2-cyclopentylacetyl)-3-hydroxy-2-methylphenoxy)butoxy)benzoate]: the EC50 was greater than 30 µM at mGlu2 and greater than 30 µM at mGlu3 (PAM mode, mean ± SEM).
As to `COc1ccc(C(=O)NC2CCCC2)cc1OCCCCOc1ccc(C(=O)CC(C)(C)C)c(O)c1C` [compound 112, N-Cyclopentyl-3-(4-(4-(3,3-dimethylbutanoyl)-3-hydroxy-2-methylphenoxy)butoxy)-4-methoxybenzamide], the EC50 on mGlu2 is greater than 10 µM; at mGlu3 (PAM mode, mean ± SEM), greater than 30 µM. Also, the values for the Emax on mGlu2 and on mGlu3 were 35 ± 5.8% and 40.3 ± 1.6%, respectively.
The matching figures for `COc1ccc(C(=O)NC(C)(C)C)cc1OCCCCOc1ccc(C(=O)CC(C)(C)C)c(O)c1C` [compound 108, N-(tert-Butyl)-3-(4-(4-(3,3-dimethylbutanoyl)-3-hydroxy-2-methylphenoxy)butoxy)-4-methoxybenzamide]: greater than 10 µM, greater than 30 µM, 38.6 ± 1.1% and 33.4 ± 5.3%.
In the case of `Cc1c(OCCCCOc2ccc(CCC(=O)O)c(O)c2)ccc(C(=O)CC(C)C)c1C` [compound 111], the EC50 at mGlu2 is greater than 10 µM; at mGlu3 (PAM mode, mean ± SEM), greater than 30 µM.
For the molecule `COc1ccc(C(=O)NS(=O)(=O)c2ccccc2)cc1OCCCCOc1ccc(C(=O)CC(C)(C)C)c(O)c1C` [compound 113, 3-(4-(4-(3,3-Dimethylbutanoyl)-3-hydroxy-2-methylphenoxy)butoxy)-4-methoxy-N-(phenylsulfonyl)benzamide], the EC50 on mGlu2 was 0.872 ± 0.004 µM; at mGlu3 (PAM mode, mean ± SEM), 1.08 ± 0.021 µM. Also, the Emax was found to be 102 ± 2.9% on mGlu2 and 109 ± 3.5% on mGlu3.
In the case of `COc1ccc(C(=O)N2CCNCC2)cc1OCCCCOc1ccc(C(=O)CC(C)(C)C)c(O)c1C` [compound 105, 1-(2-Hydroxy-4-(4-(2-methoxy-5-(piperazine-1-carbonyl)phenoxy)butoxy)-3-methylphenyl)-3,3-dimethylbutan-1-one], the EC50 was greater than 10 µM on mGlu2 and greater than 10 µM at mGlu3 (PAM mode, mean ± SEM). In addition, the Emax at mGlu2 was 67.4 ± 1.9%; on mGlu3 it was 49.7 ± 3.9%.
`Cc1c(OCc2cccc(-c3cccc(C(=O)O)c3)c2)ccc(C(=O)CC2CCCC2)c1O` [compound 129, 3′-((4-(2-Cyclopentylacetyl)-3-hydroxy-2-methylphenoxy)methyl)-[1,1′-biphenyl]-3-carboxylic acid]: the EC50 is 0.616 ± 0.217 µM on mGlu2 and 3.56 ± 1.94 µM on mGlu3 (PAM mode, mean ± SEM). For the same molecule, the results for the Emax on mGlu2 and at mGlu3 were 97.5 ± 9% and 94 ± 10.1%, respectively.
`Cc1c(OCc2cccc(-c3cccc(C#N)c3)c2)ccc(C(=O)CC(C)(C)C)c1O` [compound 151, 3′-((4-(3,3-Dimethylbutanoyl)-3-hydroxy-2-methylphenoxy)methyl)-[1,1′-biphenyl]-3-carbonitrile]: the 50% effective concentration (EC50) at mGlu2 was greater than 10 µM; at mGlu3 (PAM mode, mean ± SEM), greater than 10 µM. Further, the Emax on mGlu2 is 50.2 ± 7.4%; at mGlu3 it was 35.5 ± 3.8%.
With `COc1ccc(C(=O)O)cc1-c1cccc(COc2ccc(C(=O)CC(C)(C)C)c(O)c2C)c1` [compound 134, 3′-((4-(3,3-Dimethylbutanoyl)-3-hydroxy-2-methylphenoxy)methyl)-6-methoxy-[1,1′-biphenyl]-3-carboxylic acid], the EC50 on mGlu2 worked out at 0.118 ± 0.002 µM; on mGlu3 (PAM mode, mean ± SEM), 0.324 ± 0.094 µM. Besides, the results for the Emax at mGlu2 and at mGlu3 were 89.6 ± 2.9% and 76.4 ± 5.4%, respectively.
For `CCN(CC)C(=O)c1ccc(OC)c(OCCCCOc2ccc(C(=O)CC(C)(C)C)c(O)c2C)c1` [compound 103, 3-(4-(4-(3,3-Dimethylbutanoyl)-3-hydroxy-2-methylphenoxy)butoxy)-N,N-diethyl-4-methoxybenzamide] the same measures were 0.608 ± 0.01 µM, 0.497 ± 0.006 µM, 96.4 ± 2.1% and 111 ± 3.4%.
For `COc1ccc(C#N)cc1OCCCCOc1ccc(C(=O)CC(C)(C)C)c(O)c1C` [compound 91, 3-(4-(4-(3,3-Dimethylbutanoyl)-3-hydroxy-2-methylphenoxy)butoxy)-4-methoxybenzonitrile] the same measures were greater than 10 µM, greater than 30 µM, 48.2 ± 7.4% and 33.7 ± 7.4%.
In the case of `COc1ccc(C(=O)Nc2ccccc2)cc1OCCCCOc1ccc(C(=O)CC(C)(C)C)c(O)c1C` [compound 104, 3-(4-(4-(3,3-Dimethylbutanoyl)-3-hydroxy-2-methylphenoxy)butoxy)-4-methoxy-N-phenylbenzamide], the Emax is 23.1 ± 1.4% on mGlu2 and 27 ± 3.4% at mGlu3.
Regarding `Cc1c(OCc2cc(-c3cccc(C(=O)O)c3)ccn2)ccc(C(=O)CC(C)(C)C)c1O` [compound 153, 3-(2-((4-(3,3-Dimethylbutanoyl)-3-hydroxy-2-methylphenoxy)methyl)pyridin-4-yl)benzoic acid], the EC50 at mGlu2 stood at 0.209 ± 0.003 µM; on mGlu3 (PAM mode, mean ± SEM), 0.158 ± 0.002 µM. Further, the Emax at mGlu2 came to 106 ± 3.9%; on mGlu3, 107 ± 5.5%.
Take `COc1ccc(C(=O)NC2CC2)cc1OCCCCOc1ccc(C(=O)CC(C)(C)C)c(O)c1C` [compound 109, N-Cyclopropyl-3-(4-(4-(3,3-dimethylbutanoyl)-3-hydroxy-2-methylphenoxy)butoxy)-4-methoxybenzamide]: the EC50 on mGlu2 is 0.765 ± 0.005 µM; on mGlu3 (PAM mode, mean ± SEM) it was 0.578 ± 0.012 µM. In addition, the Emax worked out at 101.5 ± 0.9% on mGlu2 and 106 ± 5.1% on mGlu3.
On to `Cc1c(OCc2cccc(-c3ccc(Cl)c(C(=O)O)c3)c2)ccc(C(=O)CC(C)C)c1C` [compound 170], for which, at mGlu2, the “mGlu2 PAM Max” value stood at 70.2 ± 2.9% and the EC50 came to 0.815 ± 0.05 µM. Moreover, on mGlu3 (PAM mode, mean ± SEM), the EC50 was greater than 30 µM.
Take `CC(C)(C)CC(=O)c1ccc(OCc2cccc(-c3cccc(C(=O)O)c3)c2)c(Br)c1O` [Compound 193, 3′-((2-Bromo-4-(3,3-dimethylbutanoyl)-3-hydroxyphenoxy)methyl)-[1,1′-biphenyl]-3-carboxylic acid]: the Emax was determined as 79.5 ± 20.8% at mGlu2 and 74 ± 9.5% at mGlu3.
